# What was measured:
# Format in all cases: cell-based, human
# MDA-MB231 cells = assay: Cell cycle distribution of MDA-MB231 cells by flow cytometry; settings: siRNA transfection
# Experimental: Cell cycle analysis was performed to further study the effects of inhibition of Notch signaling in breast cancer cells. MDA-MB231 cells were treated overnight with 0-10 μM z-Leu-Leu-Nle-CHO prior to cell cycle distribution analysis by flow cytometry. Alternatively, MDA-MB231 cells were transfected with Notch-1, Notch-4 or control siRNA as described above in Example 15. For cell cycle distribution analysis by flow cytometry, z-Leu-Leu-Nle-CHO- or siRNA-treated cells (10^6) were pelleted and washed twice in PBS. Cells were then fixed in 80% methanol and stored at −20° C. until use. Fixed cells were pelleted and washed twice in PBS, and resuspended in 50 μl PI:PBS solution (50 μg/ml PI). After RNase A (100 μg/ml) treatment at 37° C. for an hour, cells were analyzed by flow cytometry using a FACScalibur instrument.
# [1] = test system: MDA-MB231 breast cancer cells; assay: Extracellular matrix invasion of MDA-MB231 cells (Matrigel Invasion Chambers); settings: siRNA transfection, 22 hours
# Experimental: (§1) Cytotoxicity and growth of transfected cells were estimated by a standard assay used for cancer drug screening, through the total amount of TCA-precipitated cell proteins after drug treatment (Likhitwitayawuid, K et al., 1993, J Nat Prod 56:30-38): 200 μl of cell suspension (10^5 cells/ml) were added to each well in a 96-well plate. After incubation at, 37° C., in 5% CO2 (30 minutes to 72 hours depending on the time course chosen), 50 μl 50% trichloroacetic acid was added to each well. After incubation at 4° C. for 1 hour, precipitates were washed with water 4-5 times and air dried overnight. One hundred μl of SRB solution (0.4% sulforhodamine B in 1% acetic acid, filtered before use) was added to each well for 30 minutes. Wells were washed with 1% acetic acid 4-5 times and air dried. Two hundred μl 10 mM Tris base was added to each well. Plates were shaken for 5-10 minutes and OD at 490 nm (OD490) was recorded via ELISA reader. To assay matrix invasion, 300 μl of cell suspension (10^6 cells/mL in serum-free medium) were added to invasion inserts (BioCoat Matrigel Invasion Chambers, Becton Dickinson, Bedford, Mass.) and incubated for 22 hours at 37° C., 5% CO2. Cells were stained with 0.9% crystal violet in 10% ethanol for 20 minutes. Inserts were dipped in water several times and air dried. After removal of the non-invading cells from the interior of the inserts, stained invading cells were lysed in 10% acetic acid and OD595 was determined.
# Notch silencing was confirmed by Western blot as described above in Example 15 using commercial goat polyclonal antibodies from Santa Cruz Biotechnology to Notch-1 (C-20, Cat# sc-6014 S). For the Western blot analyses, MDA-MB231 cells were treated with 25 μM IL-X for 48 h or with 0.5, 1 or 2 μM z-Leu-Leu-Nle-CHO for 24 h. Cytotoxicity and matrix invasion assays were performed as described above in Example 15. For the cytotoxicity assays, MDA-MB231 cells were treated with […] IL-X for up to 3 days or with 0-20 μM z-Leu-Leu-Nle-CHO for up to 4 days. […]
# [2] = test system: MDA-MB231 breast cancer cells; assay: Cytotoxicity and growth assay in MDA-MB231 breast cancer cells (SRB, TCA-precipitated protein); settings: MDA-MB231; siRNA transfection
# Experimental: An invasive, estrogen-independent breast cancer cell line that spontaneously expresses high levels of Notch-1 and -4, MDA-MB231, and normal human breast cells were used to investigate whether inhibition of Notch activation or expression affects the biological behavior of breast cancer cells. Human Mammary Epithelial Cells (HMEC) were purchased from Clonetics and cultured in mammary epithelial cell basal medium (MEBM) supplemented with 52 μg/ml Bovine Pituitary Extract […], […] human recombinant Epidermal Growth Factor (hEGF), 5 μg/ml insulin, 0.5 μg/ml Hydrocortisone, 50 μg/ml Gentamicin and 50 μg/ml Amphotericin-B. MDA-MB231 (ATCC, Rockville, Md.) were cultured in DMEM medium with 10% FBS. Notch expression in HMEC and MDA-MB231 cells was silenced using highly specific RNAi. Double-stranded synthetic 21-mer RNA oligonucleotides (siRNAs) were purchased from Dharmacon (Lafayette, Colo.). […] Sequence specificity was determined by BLAST searches which determined the uniqueness of the sequences. Transfection of siRNAs was performed using Oligofectamine (Invitrogen) as recommended by the siRNA manufacturer (Dharmacon). Transfection efficiency was optimized and followed on parallel wells using DNA double stranded oligos of identical sequence to the siRNAs, labeled with biotin on one strand. Transfected cells were identified by Streptavidin-horseradish peroxidase staining (Vectastain) and counted. Transfection efficiencies around 80% were routinely obtained.
# as §1, with “Cells were stained with 0.9% crystal violet in 10% ethanol for 20 minutes. Inserts were dipped in water several times and air dried.” left out, “determined. […]” for “determined.”
# NOXA [3] = assay: NOXA antisense oligonucleotide in z-Leu-Leu-Nle-CHO-treated melanoma cells (Western blot, sub-G0 DNA content); settings: RJ002L
# Description: The role of NOXA in z-Leu-Leu-Nle-CHO-mediated apoptosis of melanoma cells was further evaluated using RJ002L, C8161 and MUM2B melanoma cell lines containing antisense oligonucleotide targeting NOXA. The antisense oligonucleotides (ASO) included a NOXA targeted sequence (5′-TCAGTCTACTGATTTACTGG-3′) (SEQ ID NO: 2) and a control oligonucleotide (CO) (5′-CCTTCCCTGAAGGTTCCTCC-3′) (SEQ ID NO: 3). The ASO were purchased from ISIS Pharmaceuticals Inc. (Carlsbad, Calif.) as previously described by Qin J et al., 2004, Mol Cancer Ther 3:895-902. Melanoma cells were seeded at 2×10^5 cells into 6 well plates I day before transfection. Opti-MEM (InVitrogen) was pre-incubated for 30 minutes at room temperature using a ratio of 3 μM/mL lipofectamine per 100 nmol/L to produce a final oligonucleotide concentration of 50 nmol/L. Cells were washed with PBS and transfection mix (1 ml) was added. After 4 hrs of incubation, RPMI 1640 (1 mL) containing 20% fetal bovine serum and z-Leu-Leu-Nle-CHO (10 μM) was added to the cells and the cells were incubated for 24 hrs. The treated cells were analyzed for cell viability using APO TARGET Annexin V-FITC staining kits (Biosource), for cell cycle progression and by Western blot using NOXA, Bim, Bak and β-actin antibodies as described above.
# NOXA [4] = assay: NOXA antisense oligonucleotide pretreatment before proteasome inhibitors in melanoma cell lines; settings: MG-132, lactacystin or bortezomib; three melanoma cell lines; 24 hrs
# Description: To more definitively establish a role for NOXA in the proteasome inhibitor-induced apoptotic response, three different melanoma cell lines were pre-treated with an antisense oligonucleotides (ASO). The ASOs included a NOXA targeted sequence (5′-TCAGTCTACTGATTTACTGG-3′) (SEQ ID NO: 2) and a universal scrambled control oligonucleotide (5′-TTCTACCTCGCGCGATTTAC-3′) (SEQ ID NO: 4) (FIGS. 10A, 10B and 10C), or control oligonucleotide (CO) (5′-CCTTCCCTGAAGGTTCCTCC-3′) (SEQ ID NO: 3) (FIGS. 6B and 6D). All three ASO were provided by ISIS Pharmaceuticals Inc. (Carlsbad, Calif.) as previously described by Qin et al., 2004, Mol Cancer Ther. 3:895-902). Melanoma cells were seeded at 2×10^5 cells into 6 well plates 1 day before transfection. Opti-MEM (InVitrogen) was pre-incubated for 30 minutes at room temperature using a ratio of 3 μM/mL lipofectamine per 100 nmol/L to produce a final oligonucleotide concentration of […]. Cells were washed with PBS and transfection mix (1 ml) was added. […] The treated cells were analyzed for cell viability using APO TARGET Annexin V-FITC staining kits (Biosource) and by Western blot using NOXA and β-actin antibodies as described above.
# CaSki cells = assay: LY411,575 combinations in CaSki cells, growth inhibition and isobologram analysis; settings: in vitro
# Experimental: To evaluate the possibility that inhibition of Notch signaling may sensitize advanced cervical cancers to the effect of cisplatin chemotherapy because Notch-1 protects these cells from apoptosis through the AKT and NF-κB pathways, a non-peptide, benzodiazepine gamma-secretase inhibitor, LY411,575 (Wong et al., 2004, J Biol. Chem. 279:12876-82) was tested in combination with a AKT inhibitor (AKT inhibitor I) or a proteasome inhibitor (MG-132) for effects on cell growth. The latter class of drugs is thought to act primarily by preventing NF-KB activation (Adams, J, 2002, Curr Opin Oncol 14:628-634; Richardson, P, 2003, Cancer Treat Rev 29 Suppl 1:33-39) caused by proteasome-mediated degradation of IκB.
# To determine whether LY411,575 potentiates the effect of AKT inhibitor I or MG-132, CaSki cells were treated with (a) LY411,575 (6.25 μM to 50 μM) and AKT inhibitor 1 (0.5 μM to 75 μM), or (b) LY411,575 (1.5 μM to 200 μM) and MG-132 (0.05 μM to 0.2). Following the drug treatment, the cells were tested for growth inhibition as described above. LY411,575 was synthesized according to methods well known in the art (e.g., see WO-09828268, which is incorporated by reference), and AKT inhibitor I and MG-132 were purchased from Calbiochem.
# The IC50 values of LY411,575 in the presence of various concentrations of AKT inhibitor I or MG-132 were measured. […]
compound,measurement,setting,value
5′-AACCCTGTGCCAATGGAGGCA-3′ [Notch-4 siRNA],cell cycle distribution,MDA-MB231 cells,accumulation of cells in G2/M was maximal at 24 hours
same,extracellular matrix invasion,[1],significantly inhibited extracellular matrix invasion
same,proliferation,[2],even stronger anti-proliferative effect in MDA-MB231 cells than Notch-1 silencing
"5′-TCAGTCTACTGATTTACTGG-3′ (antisense TCAGTCTACTGATTTACTGG; listed as DNA, chemistry not given here) [NOXA ASO]",effect on z-Leu-Leu-Nle-CHO mediated apoptosis (sub-G0 DNA content),"NOXA [3]; C8161, MUM2B, p<0.01 versus control oligonucleotide",significantly reduced z-Leu-Leu-Nle-CHO mediated apoptosis
same,"effect on z-Leu-Leu-Nle-CHO induction of NOXA, Bim, Bak",NOXA [3]; 50 nmol/L oligonucleotide,"blocked induction of NOXA, but not Bim or Bak"
same,reduction of proteasome inhibitor-induced apoptotic response,NOXA [4],30-50%
"C[C@H](NC(=O)[C@@H](O)c1cc(F)cc(F)c1)C(=O)N[C@@H]1C(=O)N(C)c2ccccc2-c2ccccc21 [LY411,575]",potency relative to z-Leu-Leu-Nle-CHO,CaSki cells,less potent than z-Leu-Leu-Nle-CHO in vitro
